Consider one compound from patent US20040086569A1, “Active agent delivery systems, medical devices, and methods” (Medtronic, Inc., priority 2002, published 2004).

The conditions of data set [1]: Merck Index; cited from earlier work.
Data set [2] in a line: Dissolution of coumarin from PL75D/TP blend cap-coated shims in PBS. It is filed as physicochemical. As to conditions: FIG. 19. As to the method:
P[…] was dried at 70° C. at reduced pressure overnight. The dried pellets were compressed between two plates that were pre-heated to 230° C. and maintained for about 5 minutes. After the sample was cooled down to room temperature, it was placed in a vial filled with THF and stirred until dissolved (by visual observation). […] Coumarin was also dissolved in THF. The concentrations of all the solutions were about 1 wt-%. TL solution and coumarin solution were mixed at a weigh ratio of 1:1. This mixture is the base coating solution of a reservoir system. TP solution and P[…] solution were mixed at various weight ratios to make five different mixtures with the weight ratios of TP to P[…] being 100:0, 75:25, 50:50, 25:75, and 0:100. These solutions are referred to herein as cap coating solutions of the reservoir system. Dissolution samples were prepared with stainless steel (316L) shims (12.1×38.1 mm^2) that were cleaned by rinsing with THF. The cleaned shims were coated with the […] solution. The coated shims were allowed to dry overnight under nitrogen. […] This thermal treatment led to formation of a primer on the surface of the shims that promoted their adhesion with polymer/active agent layers. […] The concentration of coumarin in all these solutions was measured with a liquid chromatography (HP 1090) that was equipped with a UV detector. […]

For `O=c1ccc2ccccc2o1` [coumarin], the “Volume of cold water that dissolves one gram” value in data set [1] was 400 mL. In data set [2] (100% PL75D versus 100% TP cap coat), the “Release rate, pure cap-coat polymers compared” value is “release much faster from a 100% PL75D coated shim than that from 100% TP coated shim”. In data set [2] (cap coat blends), the “Release rates from the PL75D/TP blends” value is “between that from the two pure polymers”.
